How the values were obtained:
[1] = system: Human platelet cyclic AMP phosphodiesterase; experiment: Cyclic AMP phosphodiesterase assay (human platelet); format: biochemical; conditions: for IC50: human platelet phosphodiesterase, 1 μM cyclic AMP as substrate; for Relative Potency: relative to theophylline (assigned a value of 1) on human platelet phosphodiesterase
Method: (§1) The inhibition of cyclic AMP phosphodiesterase activity by the subject compounds was assayed by the method of Filburn and Karn, Analyt. Biochem., 52:505-516 (1973), using 1 μM cyclic AMP as the substrate. Human platelet cyclic AMP phosphodiesterase was obtained from human donors. Platelets were isolated and washed by centrifugation, the membranes ruptured by a sequential freeze-thaw procedure and hypotonic lysis and the soluble enzyme isolated by high speed centrifugation. The enzyme was stored in aliquots at -20° C.
(§2) This table contains the IC50 values for human platelet phosphodiesterase and IC25 values for rat heart phosphodiesterase.

[2] = system: rat heart phosphodiesterase; experiment: Cyclic AMP phosphodiesterase inhibition (rat heart); format: biochemical
Method: as §1, §2

Mongrel dogs = experiment: Inotropic activity in anesthetized dogs; format: in vivo; conditions: dog
Method: Mongrel dogs were anesthetized intravenously with 35 mg/Kg sodium pentobarbital and supplemented as needed. Blood pressure was measured with a Statham pressure transducer via a cannula inserted from a femoral artery into the abdominal aorta. Heart rate was recorded by a cardiotachometer from a lead II electrocardiogram. Right ventricular contractile force was recorded from a Walton-Brodie strain gauge sutured to the right ventricle following a midsternal thoracotomy. A Harvard respirator was used to ventilate the dogs with room air through an endotracheal tube. The dog was bilaterally vagotomized. Following a midline laparotomy, a cannula was sutured into the duodenum for intraduodenal administration of test compound. A femoral vein was cannulated for administration of isoproterenol. All data were recorded on a Beckman R611 Dynograph.
To assess the responsiveness of each dog, isoproterenol was given intravenously at half-log interval doses from 0.007 to 2.1 or 6.67 μg/Kg. The test compound was then administered intraduodenally, usually at a low dose of 2 mg/Kg and subsequently at higher doses of 6.32 and/or 20 mg/Kg, if necessary. In a few instances, some compounds administered intraduodenally at dose levels from 0.316 to 3.16 mg/Kg.

Row | Structure (SMILES) | IC50 [1] [nM] | Relative Potency [1] | Rat Heart IC25 [2] | other results
1 | O=C1CN2Cc3cc(OCCCC(=O)N(Cc4ccccc4)Cc4ccccc4)ccc3N=C2N1 [N,N--dibenzyl (n = 3, position 7), N,N-dibenzyl-4-(2-oxo-1,2,3,5-tetrahydroimidazo[2,1-b]quinazolin-7-yl)oxybutyramide] | 9.2 | 29,300 | 60 nM | 
2 | CN(C(=O)CCCOc1cccc2c1N=C1NC(=O)CN1C2)C1CCCCC1 [N-cyclohexyl-N-methyl-4-(2-oxo-1,2,3,5-tetrahydroimidazo[2,1-b]quinazolin-9-yl)oxybutyramide] | > 10000 | < 2.7 |  | 
3 | CN(C(=O)COc1ccc2c(c1)CN1CC(=O)NC1=N2)C1CCCCC1 [N-cyclohexyl-N-methyl-2-(2-oxo-1,2,3,5-tetrahydroimidazo[2,1-b]quinazolin-7-yl)oxyacetamide] | 820 | 330 | 4,400 nM | 
4 | CN(C(=O)CCCOc1ccc2c(c1)CN1CC(=O)NC1=N2)C(c1ccccc1)c1ccccc1 [N-diphenylmethyl-N-methyl-4-(2-oxo-1,2,3,5-tetrahydroimidazo[2,1-b]quinazolin-7-yl)oxybutyramide] | 15 | 18,000 | 60 nM | 
5 | CN(C(=O)CCCOc1cccc2c1CN1CC(=O)NC1=N2)C1CCCCC1 [N-cyclohexyl-N-methyl-4-(2-oxo-1,2,3,5-tetrahydroimidazo[2,1-b]quinazolin-6-yl)oxybutyramide] | 2000 | 135 |  | 
6 | CCN(C(=O)CCCOc1ccc2c(c1)CN1CC(=O)NC1=N2)C1CCCCC1 [N-cyclohexyl-N-ethyl-4-(2-oxo-1,2,3,5-tetrahydroimidazo[2,1-b]quinazolin-7-yl)oxybutyramide] | 1.5 | 180,000 | < 10 nM | 
7 | CN(C(=O)CCCOc1ccc2c(c1)CN1CC(=O)NC1=N2)c1ccccc1 [N--methyl-N--phenyl (n = 3, position 7), N-phenyl-N-methyl-4-(2-oxo-1,2,3,5-tetrahydroimidazo[2,1-b]quinazolin-7-yl)oxybutyramide] | 26 | 10,400 | 350 nM | 
8 | CN(C(=O)CCCOc1ccc2c(c1)CN1CC(=O)NC1=N2)C1CCCCCC1 [N-cycloheptyl-N-methyl-4-(2-oxo-1,2,3,5-tetrahydroimidazo[2,1-b]quinazolin-7-yl)oxybutyramide] | 1 | 270,000 | < 10 nM | 
9 | CN(C(=O)CCCCCOc1ccc2c(c1)CN1CC(=O)NC1=N2)C1CCCCC1 [N-cyclohexyl-N-methyl-6-(2-oxo-1,2,3,5-tetrahydroimidazo[2,1-b]quinazolin-7-yl)oxyhexanamide] | 12 | 22,500 | 21 nM | 
10 | CN(C(=O)CCCCCCOc1ccc2c(c1)CN1CC(=O)NC1=N2)C1CCCCC1 [N-cyclohexyl-N-methyl-7-(2-oxo-1,2,3,5-tetrahydroimidazo[2,1-b]quinazolin-7-yl)oxyheptanamide] | 16 | 16,800 | 45 nM | 
11 | CC(C)(C)C(=O)OCCN(C(=O)CCCOc1ccc2c(c1)CN1CC(=O)NC1=N2)C1CCCCC1 | 1 | 270,000 |  | 
12 | O=C1CN2Cc3cc(OCCCC(=O)N(CCO)C4CCCCC4)ccc3N=C2N1 [N-cyclohexyl-N-(2-hydroxyethyl)-4-(2-oxo-1,2,3,5-tetrahydroimidazo[2,1-b]quinazolin-7-yl)oxybutyramide] | 12.5 | 21,600 | 70 nM | 
13 | O=C1CN2Cc3cc(OCCCC(=O)NC4CCCCC4)ccc3N=C2N1 [N--cyclohexyl (n = 3, position 7), N-cyclohexyl-4-(2-oxo-1,2,3,5-tetrahydroimidazo-[2,1-b]quinazolin-7-yl)oxybutyramide] | 72 | 38,000 | 180 nM | 
14 | O=C1CN2Cc3cc(OCCCC(=O)N4CCCCC4CC(C4CCCCC4)C4CCCCC4)ccc3N=C2N1 (racemic) [perhexylenyl (n = 3, position 7), perhexylenyl-4-(2-oxo-1,2,3,5-tetrahydroimidazo[2,1-b]quinazolin-7-yl)oxybutyramide] | 1.8 | 146,000 | 36 nM | 
15 | CN(Cc1ccccc1)C(=O)CCCOc1ccc2c(c1)CN1CC(=O)NC1=N2 [N--methyl-N--benzyl (n = 3, position 7), N-benzyl-N-methyl-4-(2-oxo-1,2,3,5-tetrahydroimidazo[2,1-b]quinazolin-7-yl)oxybutyramide] | 26 | 10,400 | 240 nM | 
16 | C[C@H]1C(=O)NC2=Nc3ccc(OCCCC(=O)N(C)C4CCCCC4)cc3CN21 [N-cyclohexyl-N-methyl-4-(2-oxo-3-L-methyl-1,2,3,5-tetrahydroimidazo[2,1-b]quinzolin-7-yl)oxybutyramide] |  |  |  | Blood Pressure, peak effect as % of max. isoproterenol (Mongrel dogs; i.v., 0.1 mg/kg): 97%; Heart Rate, peak effect as % of max. isoproterenol (Mongrel dogs; i.v., 0.1 mg/kg): 55%; Rt. Ventricular Contractile Force, peak effect as % of max. isoproterenol (Mongrel dogs; i.v., 0.1 mg/kg): 32%; Blood Pressure, peak effect as % of max. isoproterenol (Mongrel dogs; intraduodenal, 0.316 mg/kg): 17%; Heart Rate, peak effect as % of max. isoproterenol (Mongrel dogs; intraduodenal, 0.316 mg/kg): 11%; Rt. Ventricular Contractile Force, peak effect as % of max. isoproterenol (Mongrel dogs; intraduodenal, 0.316 mg/kg): 23%; Blood Pressure, peak effect as % of max. isoproterenol (Mongrel dogs; intraduodenal, 1.0 mg/kg): 54%; Heart Rate, peak effect as % of max. isoproterenol (Mongrel dogs; intraduodenal, 1.0 mg/kg): 44%; Rt. Ventricular Contractile Force, peak effect as % of max. isoproterenol (Mongrel dogs; intraduodenal, 1.0 mg/kg): 69%; Blood Pressure, peak effect as % of max. isoproterenol (Mongrel dogs; intraduodenal, 3.16 mg/kg): 94%; Heart Rate, peak effect as % of max. isoproterenol (Mongrel dogs; intraduodenal, 3.16 mg/kg): 58%; Rt. Ventricular Contractile Force, peak effect as % of max. isoproterenol (Mongrel dogs; intraduodenal, 3.16 mg/kg): 55%
17 | COCCN(C(=O)CCCOc1ccc2c(c1)CN1CC(=O)NC1=N2)C1CCCCC1 [N-cyclohexyl-N-(2-methoxyethyl)-4-(2-oxo-1,2,3,5-tetrahydroimidazo[2,1-b]quinazolin-7-yl)oxybutyramide] | 1.3 | 208,000 | < 10 nM | 
18 | CN(C(=O)CCCCOc1ccc2c(c1)CN1CC(=O)NC1=N2)C1CCCCC1 [N-cyclohexyl-N-methyl-5-(2-oxo-1,2,3,5-tetrahydroimidazo[2,1-b]quinazolin-7-yl)oxypentanamide] | 4.6 | 58,700 | 22 nM | 
19 | O=C1CN2Cc3cc(OCCCC(=O)N(CCOC(=O)c4ccccc4)C4CCCCC4)ccc3N=C2N1 [N-cyclohexyl-N-(benzoyloxyethyl)-4-(2-oxo-1,2,3,5-tetrahydroimidazo[2,1-b]quinazolin-7-yl)oxybutyramide] | 0.94 | 287,000 |  | 
20 | CN(C(=O)CCCOc1ccc2c(c1)CN1C(=N2)NC(=O)[C@H]1CO)C1CCCCC1 [N-cyclohexyl-N-methyl-4-(2-oxo-3-D-hydroxymethyl-1,2,3,5-tetrahydroimidazo[2,1-b]quinazolin-7-yl)oxybutyramide] | 18.5 | 14,600 | 72 nM | 
21 | CN(C(=O)CCCOc1ccc2c(c1)N=C1NC(=O)CN1C2)C1CCCCC1 [N-cyclohexyl-N-methyl-4-(2-oxo-1,2,3,5-tetrahydroimidazo[2,1-b]quinazolin-8-yl)oxybutyramide] | 150 | 1,800 |  | 
22 | CC(C)N(C(=O)CCCOc1ccc2c(c1)CN1CC(=O)NC1=N2)C1CCCCC1 [N-cyclohexyl-N-isopropyl-4-(2-oxo-1,2,3,5-tetrahydroimidazo[2,1-b]quinazolin-7-yl)oxybutyramide] | 3.2 | 84,000 | 15 nM | 
23 | CC(=O)OCCN(C(=O)CCCOc1ccc2c(c1)CN1CC(=O)NC1=N2)C1CCCCC1 [N-cyclohexyl-N-(acetoxyethyl)-4-(2-oxo-1,2,3,5-tetrahydroimidazo[2,1-b]quinazolin-7-yl)oxybutyramide] | 1.4 | 193,000 |  | 
24 | CN(C(=O)CCCOc1ccc2c(c1)CN1C(=N2)NC(=O)[C@@H]1CO)C1CCCCC1 [N-cyclohexyl-N-methyl-4-(2-oxo-3-L-hydroxymethyl-1,2,3,5-tetrahydroimidazo[2,1-b]quinazolin-7-yl)oxybutyramide] | 27.5 | 9,800 | 90 nM | 
25 | O=C1CN2Cc3cc(OCCCC(=O)N4CCCC5CCCCC54)ccc3N=C2N1 (racemic) [(±)-decahydroquinloninyl-4-(2-oxo-1,2,3,5-tetrahydroimidazo[2,1-b]quinazolin-7-yl)oxybutyramide] | 13.5 | 20,000 | 200 nM | 
26 | CC(C)C(=O)OCCN(C(=O)CCCOc1ccc2c(c1)CN1CC(=O)NC1=N2)C1CCCCC1 | 1.1 | 245,000 |  | 
27 | O=C1CN2Cc3cc(OCCCC(=O)N(C4CCCCC4)C4CCCCC4)ccc3N=C2N1 [N,N--dicyclohexyl (n = 3, position 7), N,N-dicyclohexyl-4-(2-oxo-1,2,3,5-tetrahydroimidazo[2,1-b]quinazolin-7-yl)oxybutyramide] | 1.4 | 186,000 | 16 nM | 
